Source: ChEMBL document CHEMBL1201862, “PubChem BioAssay data set” (2004)
Active and inactive are the calls of the source.

Columns and labels:
[1] = biological target: T1, Cannabinoid receptor 2 (Homo sapiens, UniProt P34972); experiment: SAR analysis of antagonists of the Cannabinoid Receptor 2 using an Image-Based Assay - Set 3. [Related pubchem assays (depositor defined):AID2013, AID2026]; type: functional
[2] = biological target: T1, Cannabinoid receptor 2; experiment: SAR analysis of agonists of the Cannabinoid Receptor 2 using an Image-Based Assay - Set 3. [Related pubchem assays (depositor defined):AID2013, AID2026]; type: functional
[3] = biological target: T2, Cannabinoid receptor 1 (Homo sapiens, UniProt P21554); experiment: SAR analysis of agonists of the Cannabinoid Receptor 1 using an Image-Based Assay - Set 4. [Related pubchem assays (depositor defined):AID2013, AID2026]; type: functional
T2 sequence (P21554 whole entry): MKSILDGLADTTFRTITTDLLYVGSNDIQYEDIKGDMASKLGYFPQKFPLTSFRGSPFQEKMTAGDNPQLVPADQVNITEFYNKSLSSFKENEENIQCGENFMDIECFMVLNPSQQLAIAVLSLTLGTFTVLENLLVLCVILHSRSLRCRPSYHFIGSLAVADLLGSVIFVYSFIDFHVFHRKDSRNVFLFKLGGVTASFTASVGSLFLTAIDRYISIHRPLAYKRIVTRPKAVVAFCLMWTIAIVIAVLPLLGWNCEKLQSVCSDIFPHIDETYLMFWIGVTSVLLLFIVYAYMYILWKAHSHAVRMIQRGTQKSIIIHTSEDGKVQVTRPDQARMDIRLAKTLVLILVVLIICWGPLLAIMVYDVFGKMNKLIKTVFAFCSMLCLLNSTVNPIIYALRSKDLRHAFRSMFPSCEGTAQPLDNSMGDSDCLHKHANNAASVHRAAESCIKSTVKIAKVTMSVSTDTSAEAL

[4] = biological target: T3, G-protein coupled receptor 35 (Homo sapiens, UniProt Q9HC97); experiment: SAR analysis of Antagonists of the GPR35 Receptor using an Image-Based Assay - Set 6. [Related pubchem assays (depositor defined):AID2013, AID2026]; type: functional
T3 sequence (Q9HC97 whole entry): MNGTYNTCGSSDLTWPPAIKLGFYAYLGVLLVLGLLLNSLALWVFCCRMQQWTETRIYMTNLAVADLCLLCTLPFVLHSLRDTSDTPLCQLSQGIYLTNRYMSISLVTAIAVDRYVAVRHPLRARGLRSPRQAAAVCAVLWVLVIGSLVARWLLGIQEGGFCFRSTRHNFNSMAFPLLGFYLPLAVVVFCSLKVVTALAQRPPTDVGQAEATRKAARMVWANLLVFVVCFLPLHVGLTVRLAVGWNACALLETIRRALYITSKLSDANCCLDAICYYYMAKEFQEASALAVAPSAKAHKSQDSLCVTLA

[5] = biological target: G-protein coupled receptor 55 (Homo sapiens, UniProt Q9Y2T6); experiment: SAR Analysis of Selective Antagonists of GPR55 using an Image-Based Assay - Set 4. [Related pubchem assays (depositor defined):AID2013, AID2026]; type: functional;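 further: antagonism of response to 5 µM lysophosphatidylinositol agonist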
G-protein coupled receptor 55, sequence (Q9Y2T6 whole entry): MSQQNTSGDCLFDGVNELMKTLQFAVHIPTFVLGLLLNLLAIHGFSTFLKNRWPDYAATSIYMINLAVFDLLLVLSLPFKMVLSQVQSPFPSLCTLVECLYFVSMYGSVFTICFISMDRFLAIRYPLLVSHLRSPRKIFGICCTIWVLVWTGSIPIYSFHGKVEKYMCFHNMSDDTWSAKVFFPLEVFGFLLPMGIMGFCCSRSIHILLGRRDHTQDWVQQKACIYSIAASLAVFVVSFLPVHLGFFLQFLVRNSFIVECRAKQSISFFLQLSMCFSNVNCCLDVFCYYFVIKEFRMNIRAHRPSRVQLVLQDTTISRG

[6] = biological target: T2, Cannabinoid receptor 1; experiment: SAR analysis of antagonists of the Cannabinoid Receptor 1 using an Image-Based Assay - Set 4. [Related pubchem assays (depositor defined):AID2013, AID2026]; type: functional
[7] = biological target: T3, G-protein coupled receptor 35; experiment: SAR analysis of Agonists of the GPR35 Receptor using an Image-Based Assay - Set 4. [Related pubchem assays (depositor defined):AID2013, AID2026]; type: functional
[8] = biological target: T4, Mu-type opioid receptor (Homo sapiens, UniProt P35372); experiment: mu opioid receptor activators, image-based, SAR follow-up (AID 2352); type: functional
T4 sequence (P35372 whole entry): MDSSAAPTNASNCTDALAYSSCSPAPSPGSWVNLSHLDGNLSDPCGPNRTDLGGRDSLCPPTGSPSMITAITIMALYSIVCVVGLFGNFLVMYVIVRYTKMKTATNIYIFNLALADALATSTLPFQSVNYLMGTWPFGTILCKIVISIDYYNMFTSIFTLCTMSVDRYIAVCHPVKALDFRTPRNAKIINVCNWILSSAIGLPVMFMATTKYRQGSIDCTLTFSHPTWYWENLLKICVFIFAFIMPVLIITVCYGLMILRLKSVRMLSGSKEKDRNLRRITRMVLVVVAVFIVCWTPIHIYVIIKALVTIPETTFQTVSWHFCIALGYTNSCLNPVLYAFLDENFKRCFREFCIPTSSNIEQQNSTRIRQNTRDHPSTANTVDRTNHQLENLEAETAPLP

[9] = biological target: T5, Delta-type opioid receptor (Homo sapiens, UniProt P41143); experiment: DOR agonists, SAR follow-up, image-based (AID 2370); type: functional
T5 sequence (P41143 whole entry): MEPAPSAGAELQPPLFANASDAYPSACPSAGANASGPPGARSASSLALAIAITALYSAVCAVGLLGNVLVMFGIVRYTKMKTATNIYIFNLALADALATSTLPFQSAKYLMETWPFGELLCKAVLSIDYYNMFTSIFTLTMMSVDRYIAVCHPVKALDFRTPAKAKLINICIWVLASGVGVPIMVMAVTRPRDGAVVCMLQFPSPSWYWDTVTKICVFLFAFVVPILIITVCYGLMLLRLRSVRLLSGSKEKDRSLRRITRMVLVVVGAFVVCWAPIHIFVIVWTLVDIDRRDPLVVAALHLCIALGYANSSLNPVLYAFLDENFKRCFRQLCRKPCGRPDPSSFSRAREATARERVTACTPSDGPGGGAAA

[10] = biological target: T6, Kappa-type opioid receptor (Homo sapiens, UniProt P41145); experiment: kappa opioid receptor blockers, cell-based, luminescence, beta-arrestin, SAR follow-up (AID 2285); type: functional
T6 sequence (P41145 whole entry): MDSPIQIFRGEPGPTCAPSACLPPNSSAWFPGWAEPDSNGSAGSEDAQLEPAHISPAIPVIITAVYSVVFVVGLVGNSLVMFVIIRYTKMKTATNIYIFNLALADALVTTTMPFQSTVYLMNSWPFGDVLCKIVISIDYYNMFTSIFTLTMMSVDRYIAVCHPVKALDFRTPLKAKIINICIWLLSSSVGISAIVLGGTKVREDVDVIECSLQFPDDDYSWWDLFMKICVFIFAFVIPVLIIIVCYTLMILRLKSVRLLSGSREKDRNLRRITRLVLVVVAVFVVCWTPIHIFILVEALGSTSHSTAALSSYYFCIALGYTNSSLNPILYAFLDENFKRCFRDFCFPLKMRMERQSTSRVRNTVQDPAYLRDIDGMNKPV

[11] = biological target: T6, Kappa-type opioid receptor; experiment: kappa opioid receptor activation potency – imaging, image-based, SAR follow-up (AID 2359); type: functional
[12] = biological target: T6, Kappa-type opioid receptor; experiment: kappa opioid receptor blockers, image-based, SAR follow-up (AID 2348); type: functional
[13] = biological target: T5, Delta-type opioid receptor; experiment: delta opioid receptor blockers – image-based, SAR follow-up (AID 2357); type: functional
[14] = biological target: T4, Mu-type opioid receptor; experiment: mu opioid receptor blockers – image-based, SAR follow-up (AID 2420); type: functional;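 further: compounds added before stimulation of receptor with agonist DAMGO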
[15] = biological target: Intestinal-type alkaline phosphatase (Mus musculus, UniProt P24822); experiment: PubChem AID 488874; type: functional
Intestinal-type alkaline phosphatase (Mus musculus, UniProt P24822), sequence (P24822 whole entry): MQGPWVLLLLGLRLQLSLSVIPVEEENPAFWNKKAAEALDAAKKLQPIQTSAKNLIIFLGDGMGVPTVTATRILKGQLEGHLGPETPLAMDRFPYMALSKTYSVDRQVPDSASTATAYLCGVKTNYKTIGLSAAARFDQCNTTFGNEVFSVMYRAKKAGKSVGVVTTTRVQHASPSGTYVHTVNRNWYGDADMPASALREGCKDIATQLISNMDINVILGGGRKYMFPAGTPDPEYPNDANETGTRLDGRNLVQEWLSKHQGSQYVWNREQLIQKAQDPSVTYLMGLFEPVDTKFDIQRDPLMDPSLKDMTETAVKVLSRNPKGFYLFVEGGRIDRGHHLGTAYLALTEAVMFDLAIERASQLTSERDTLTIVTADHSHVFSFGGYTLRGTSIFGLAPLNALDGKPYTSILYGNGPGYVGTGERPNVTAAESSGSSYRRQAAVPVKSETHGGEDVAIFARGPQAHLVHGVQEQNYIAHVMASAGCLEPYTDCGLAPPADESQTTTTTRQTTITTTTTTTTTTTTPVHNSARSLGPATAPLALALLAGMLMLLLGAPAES

[16] = biological target: T7, Endoribonuclease toxin MazF (Escherichia coli K-12, UniProt P0AE70); experiment: activation of MazEF endoribonuclease cleavage – biochemical, fluorescence, single-stranded RNA substrate, uHTS hits, dose response (AID 588481); type: functional
T7 sequence (P0AE70 whole entry): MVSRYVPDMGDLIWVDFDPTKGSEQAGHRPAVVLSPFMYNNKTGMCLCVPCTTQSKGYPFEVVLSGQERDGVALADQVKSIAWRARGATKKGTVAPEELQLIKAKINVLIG

[17] = biological target: T8, Microphthalmia-associated transcription factor (Homo sapiens, UniProt O75030); experiment: reducers of TRPM1 reporter luminescence, concentration series – cell-based, SK-MEL-5, cherry-picked, set 3, MITF inhibitor project, dose response (AID 493073); type: functional;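 further: SK-MEL-5 melanoma cells with luciferase driven by the MITF target TRPM1 promoter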
T8 sequence (O75030 whole entry): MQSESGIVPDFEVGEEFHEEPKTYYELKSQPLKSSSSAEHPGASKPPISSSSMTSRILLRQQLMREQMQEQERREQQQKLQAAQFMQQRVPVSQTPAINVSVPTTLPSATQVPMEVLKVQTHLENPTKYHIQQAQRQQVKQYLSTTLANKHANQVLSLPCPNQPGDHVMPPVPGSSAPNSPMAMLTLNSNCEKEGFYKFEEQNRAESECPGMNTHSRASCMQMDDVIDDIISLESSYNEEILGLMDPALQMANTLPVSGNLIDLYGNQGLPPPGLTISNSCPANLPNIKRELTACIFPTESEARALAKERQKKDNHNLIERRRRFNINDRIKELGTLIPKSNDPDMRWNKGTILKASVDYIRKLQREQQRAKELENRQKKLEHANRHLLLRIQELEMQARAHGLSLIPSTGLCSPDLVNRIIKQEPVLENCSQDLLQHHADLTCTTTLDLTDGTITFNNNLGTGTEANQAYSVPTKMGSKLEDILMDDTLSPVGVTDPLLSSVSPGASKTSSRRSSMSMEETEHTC

[18] = biological target: T7, Endoribonuclease toxin MazF; experiment: substrate-only fluorescence increase artefacts – biochemical, single-stranded RNase substrate, counter-screen for MazEF activator project, dose response (AID 588502); type: functional
[19] = biological target: T9, Intestinal-type alkaline phosphatase (Homo sapiens, UniProt P09923); experiment: Dose Response confirmation of uHTS hits from a small molecule inhibitors of human intestinal alkaline phosphatase via a luminescent assay. [Related pubchem assays (depositor defined):AID2544, AID2574]; type: functional
T9 sequence (P09923 whole entry): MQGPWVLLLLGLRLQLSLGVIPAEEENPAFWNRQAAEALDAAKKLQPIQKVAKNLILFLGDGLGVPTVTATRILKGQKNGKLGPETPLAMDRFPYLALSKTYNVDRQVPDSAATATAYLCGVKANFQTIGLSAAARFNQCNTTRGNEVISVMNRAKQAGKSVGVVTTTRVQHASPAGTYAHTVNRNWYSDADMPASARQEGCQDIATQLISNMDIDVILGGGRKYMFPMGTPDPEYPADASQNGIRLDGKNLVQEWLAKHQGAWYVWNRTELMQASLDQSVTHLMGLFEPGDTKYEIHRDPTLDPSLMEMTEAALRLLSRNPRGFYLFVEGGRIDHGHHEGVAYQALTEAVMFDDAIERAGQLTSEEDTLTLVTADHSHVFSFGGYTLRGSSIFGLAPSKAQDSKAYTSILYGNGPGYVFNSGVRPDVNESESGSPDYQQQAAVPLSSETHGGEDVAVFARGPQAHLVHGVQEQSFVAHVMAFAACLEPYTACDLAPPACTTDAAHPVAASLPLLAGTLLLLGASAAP

[20] = biological target: T9, Intestinal-type alkaline phosphatase; experiment: inhibition of human intestinal alkaline phosphatase – biochemical, luminescent, uHTS hits, set 2, dose response (AID 488793); type: functional
[21] = biological target: Dual specificity tyrosine-phosphorylation-regulated kinase 1A (Rattus norvegicus, UniProt Q63470); type: biochemical, Homo sapiens
[22] = biological target: T10, Alkaline phosphatase, tissue-nonspecific isozyme (Homo sapiens, UniProt P05186); experiment: inhibition of tissue-nonspecific alkaline phosphatase – biochemical, dose response (AID 488882); type: functional
T10 sequence (P05186 whole entry): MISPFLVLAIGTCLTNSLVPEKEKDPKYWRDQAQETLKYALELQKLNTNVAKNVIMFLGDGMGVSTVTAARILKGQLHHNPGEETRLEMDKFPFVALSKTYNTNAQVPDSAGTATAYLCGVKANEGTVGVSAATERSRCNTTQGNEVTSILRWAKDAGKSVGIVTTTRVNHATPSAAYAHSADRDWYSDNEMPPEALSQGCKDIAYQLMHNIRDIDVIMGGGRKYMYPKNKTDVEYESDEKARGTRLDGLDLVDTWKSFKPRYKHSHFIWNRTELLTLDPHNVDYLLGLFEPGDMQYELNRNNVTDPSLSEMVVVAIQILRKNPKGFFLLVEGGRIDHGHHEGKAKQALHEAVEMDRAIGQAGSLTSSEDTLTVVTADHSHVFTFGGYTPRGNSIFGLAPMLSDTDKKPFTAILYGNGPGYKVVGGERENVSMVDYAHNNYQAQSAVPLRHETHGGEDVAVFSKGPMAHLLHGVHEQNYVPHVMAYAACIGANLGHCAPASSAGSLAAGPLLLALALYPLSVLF

[23] = biological target: Cytochrome P450 3A4 (Homo sapiens, UniProt P08684);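 further: CYP3A4 tested as one member of a cytochrome P450 panel screen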
[24] = biological target: Cytochrome P450 2C9 (Homo sapiens, UniProt P11712)
[25] = biological target: Cytochrome P450 2D6 (Homo sapiens, UniProt P10635);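 further: CYP2D6 member of a cytochrome P450 panel assay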
[26] = biological target: T11, Cytochrome P450 1A2 (Homo sapiens, UniProt P05177);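 further: PubChem cytochrome P450 panel assay, CYP1A2 panel member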
T11 sequence (P05177 whole entry): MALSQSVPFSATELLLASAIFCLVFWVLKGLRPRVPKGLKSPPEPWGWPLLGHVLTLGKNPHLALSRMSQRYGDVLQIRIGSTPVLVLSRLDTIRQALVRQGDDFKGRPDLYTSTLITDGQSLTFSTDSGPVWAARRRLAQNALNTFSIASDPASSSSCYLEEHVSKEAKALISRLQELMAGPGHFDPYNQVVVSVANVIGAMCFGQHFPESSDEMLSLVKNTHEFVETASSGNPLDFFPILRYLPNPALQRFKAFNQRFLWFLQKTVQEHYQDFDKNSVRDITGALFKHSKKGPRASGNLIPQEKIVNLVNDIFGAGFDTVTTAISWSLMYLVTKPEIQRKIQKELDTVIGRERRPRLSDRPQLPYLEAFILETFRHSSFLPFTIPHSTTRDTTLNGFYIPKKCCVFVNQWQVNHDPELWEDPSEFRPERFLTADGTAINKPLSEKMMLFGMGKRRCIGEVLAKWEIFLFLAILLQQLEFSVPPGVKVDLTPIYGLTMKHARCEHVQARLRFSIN

[27] = biological target: T12, SUMO-activating enzyme (Homo sapiens, UniProt Q9UBT2); experiment: blockers of SAE1/SAE2–UBC9 SUMO transfer – biochemical, HTRF, uHTS, primary screen (AID 2006); type: protein-complex assay
T12 sequence (Q9UBE0 whole entry): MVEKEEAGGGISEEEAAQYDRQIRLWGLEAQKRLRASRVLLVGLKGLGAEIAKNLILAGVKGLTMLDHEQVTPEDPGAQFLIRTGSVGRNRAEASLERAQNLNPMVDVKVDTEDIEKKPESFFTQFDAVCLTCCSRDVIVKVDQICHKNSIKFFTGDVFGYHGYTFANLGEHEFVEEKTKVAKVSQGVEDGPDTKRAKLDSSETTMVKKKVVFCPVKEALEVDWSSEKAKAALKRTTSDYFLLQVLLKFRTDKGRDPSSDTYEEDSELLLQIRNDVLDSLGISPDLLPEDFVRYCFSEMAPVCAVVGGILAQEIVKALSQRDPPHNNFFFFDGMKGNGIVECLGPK
T12 sequence (Q9UBT2 whole entry): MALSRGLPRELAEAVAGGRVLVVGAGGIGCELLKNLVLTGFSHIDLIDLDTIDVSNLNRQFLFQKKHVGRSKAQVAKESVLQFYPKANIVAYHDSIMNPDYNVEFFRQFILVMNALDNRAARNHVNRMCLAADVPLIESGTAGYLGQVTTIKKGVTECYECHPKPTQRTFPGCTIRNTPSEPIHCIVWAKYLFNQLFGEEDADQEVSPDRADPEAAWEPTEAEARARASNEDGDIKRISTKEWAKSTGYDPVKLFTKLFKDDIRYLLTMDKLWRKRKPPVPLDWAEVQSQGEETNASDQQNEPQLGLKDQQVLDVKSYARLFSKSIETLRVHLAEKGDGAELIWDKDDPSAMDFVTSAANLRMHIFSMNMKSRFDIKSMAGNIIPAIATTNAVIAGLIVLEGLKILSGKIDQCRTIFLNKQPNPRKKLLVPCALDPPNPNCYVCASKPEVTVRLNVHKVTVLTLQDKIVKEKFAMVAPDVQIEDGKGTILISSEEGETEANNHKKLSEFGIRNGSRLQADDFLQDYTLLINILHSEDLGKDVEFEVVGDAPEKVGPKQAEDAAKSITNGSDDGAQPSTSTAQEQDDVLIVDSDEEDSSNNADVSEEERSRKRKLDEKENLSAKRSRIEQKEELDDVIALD

[28] = biological target: T12, SUMO-activating enzyme; experiment: blockers of UBC9-mediated SUMO conjugation – biochemical, AlphaScreen, SUMOylation inhibitor project, confirmation (AID 2018); type: functional
[29] = biological target: T13, Rac GTPase-activating protein 1 (Homo sapiens, UniProt Q9H0H5); experiment: blockers of MgcRacGAP-driven Rac1 GTP hydrolysis – biochemical, ADP Hunter fluorescence, primary and confirmatory, confirmation (AID 624330); type: functional
T13 sequence (Q9H0H5 whole entry): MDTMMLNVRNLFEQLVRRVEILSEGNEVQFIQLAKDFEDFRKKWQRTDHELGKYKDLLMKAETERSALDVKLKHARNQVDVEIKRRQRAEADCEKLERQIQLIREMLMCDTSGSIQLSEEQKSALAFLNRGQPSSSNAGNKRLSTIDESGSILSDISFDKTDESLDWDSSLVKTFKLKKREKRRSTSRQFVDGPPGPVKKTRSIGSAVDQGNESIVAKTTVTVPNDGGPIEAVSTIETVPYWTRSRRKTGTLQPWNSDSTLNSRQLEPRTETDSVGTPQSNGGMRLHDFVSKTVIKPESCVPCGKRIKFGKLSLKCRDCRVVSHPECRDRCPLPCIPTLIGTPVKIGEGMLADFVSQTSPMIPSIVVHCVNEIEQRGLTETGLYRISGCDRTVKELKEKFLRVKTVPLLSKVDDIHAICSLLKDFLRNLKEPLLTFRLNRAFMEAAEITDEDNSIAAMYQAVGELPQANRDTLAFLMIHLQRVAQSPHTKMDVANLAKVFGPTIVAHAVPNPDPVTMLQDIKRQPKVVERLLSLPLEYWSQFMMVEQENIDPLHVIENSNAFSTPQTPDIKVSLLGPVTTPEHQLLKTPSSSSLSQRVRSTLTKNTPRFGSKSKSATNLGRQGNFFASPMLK

T1 sequence (P34972 whole entry): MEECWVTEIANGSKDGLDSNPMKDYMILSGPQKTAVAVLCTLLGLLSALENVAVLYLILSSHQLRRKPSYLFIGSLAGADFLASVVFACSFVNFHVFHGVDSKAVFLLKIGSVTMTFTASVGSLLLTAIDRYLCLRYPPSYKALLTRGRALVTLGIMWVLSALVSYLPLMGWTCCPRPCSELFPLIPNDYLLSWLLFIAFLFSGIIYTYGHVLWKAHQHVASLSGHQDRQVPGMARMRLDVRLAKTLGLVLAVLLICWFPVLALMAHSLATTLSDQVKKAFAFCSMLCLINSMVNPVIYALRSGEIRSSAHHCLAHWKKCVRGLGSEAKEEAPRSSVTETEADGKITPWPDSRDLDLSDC

Compound: Cc1ccc(C(C)C(=O)N2CCC(n3nc(-c4ccccc4)oc3=O)CC2)cc1 (stereo not drawn)
- IC50 [1]: 22.9 µM (inactive)
- EC50 [2]: > 32 µM (inactive)
- EC50 [3]: > 32 µM (inactive)
- IC50 [4]: > 32 µM (inactive)
- IC50 [5]: 7.6 µM (active)
- IC50 [6]: 3.31 µM (active)
- EC50 [7]: > 32 µM (inactive)

Compound: O=C(NC(NC(=S)Nc1ccc(Cl)c(Cl)c1)C(Cl)(Cl)Cl)OCc1ccccc1 (stereo not drawn)
- EC50 [8]: > 32 µM (inactive)
- EC50 [9]: > 32 µM (inactive)
- IC50 [10]: > 10 µM (inactive)
- EC50 [11]: > 32 µM (inactive)
- IC50 [12]: 11.9 µM (inactive)
- IC50 [13]: > 32 µM (inactive)
- IC50 [14]: > 32 µM (inactive)

Compound: CC(C)=CCc1c(O)ccc2c1OC(c1ccc(O)c(O)c1)CC2=O (stereo not drawn)
- IC50 [15]: 11.5 µM (active)
- EC50 [16]: > 99 µM (inactive)
- AC50 [17]: 11.7 µM (active)
- EC50 [18]: > 99 µM (inactive)
- IC50 [19]: 6.64 µM (active)
- IC50 [20]: 1.97 µM (active)
- AC50 [21]: 3.68 µM (active)
- IC50 [22]: 88.8 µM (active)

Compound: CCOc1ccc(-c2n[nH]c(C)c2-c2ccc(OC)cc2)c(O)c1
- IC50 [1]: 3.79 µM (active)
- EC50 [2]: 31.6 µM (inactive)
- EC50 [3]: > 32 µM (inactive)
- IC50 [4]: > 32 µM (inactive)
- IC50 [5]: 15.6 µM (inactive)
- IC50 [6]: 0.85 µM (active)
- EC50 [7]: 25.5 µM (inactive)

Compound: O=P(O)(CP(=O)(c1ccccc1)c1ccccc1)c1ccccc1O
- AC50 [23]: 17.8 µM (inconclusive)
- AC50 [24]: 0.1 µM (inconclusive)
- AC50 [25]: inconclusive
- AC50 [26]: 28.2 µM (inconclusive)

Compound: O=C(/C=C/c1ccco1)NC(=S)Nc1ccc(O)c(-c2nc3ccccc3s2)c1
- IC50 [27]: 18 µM (active)
- IC50 [28]: 12.1 µM (active)

Compound: CC(=O)Nc1ccc(S(=O)(=O)NCc2ccc(C(=O)NCCN(C)Cc3ccccc3)cc2)cc1
- EC50 [8]: > 32 µM (inactive)
- EC50 [9]: > 32 µM (inactive)
- IC50 [10]: > 10 µM (inactive)
- EC50 [11]: > 32 µM (inactive)
- IC50 [12]: > 32 µM (inactive)
- IC50 [13]: > 32 µM (inactive)
- IC50 [14]: > 32 µM (inactive)

Compound: COc1ccc(C=C2C(=O)c3ccccc3C2=O)cc1O
- IC50 [29]: 46.8 µM (active)
- IC50 [15]: 15 µM (active)
- IC50 [19]: 12.7 µM (inactive)
- IC50 [20]: 15.6 µM (active)
- AC50 [21]: 1.7 µM (active)
- IC50 [22]: 15.6 µM (active)
